Here are results for five compounds from ChEMBL document CHEMBL6127022, “Acid-sensitive prodrugs; a promising approach for site-specific and targeted drug release” (Eur J Med Chem, 2024).

The subject of test [1] is RAW264.7. Put plainly: Anti-inflammatory activity in LPS-induced mouse RAW264.7 cells assessed as inhibition of TNF-alpha production at 10 uM incubated for 24 hrs by qRT-PCR analysis relative to control. The format is functional. Also on record: scale not given: the % may be the effect or the level left.
For test [2], the system named is RAW264.7. Put plainly: Anti-inflammatory activity in LPS-induced mouse RAW264.7 cells assessed as inhibition of IL-6 production at 10 uM incubated for 24 hrs by qRT-PCR analysis relative to control. Also on record: scale not given: the % may be the effect or the level left. Type of test: functional.
For another test, the system named is KB. Put plainly: Antitumor activity against human KB cells assessed as reduction in cell growth incubated for 96 hrs by MTT assay. Type of test: functional, cell-based. For orientation: Tetrazolium dyes change colour on reduction, which living cells bring about.
The next test deals with HeLa. Put plainly: cells. The following applies: Homo sapiens, 96 h.

≈ marks a conversion by molar mass, not a printed value.

Description for HeLa: Anticancer activity against human HeLa cells assessed as inhibition of cell growth incubated for 96 hrs by MTT assay

Turning to `NC(=O)Nc1sc(-c2ccc(F)cc2)cc1C(N)=O`, in the test with RAW264.7 [1], the Activity came out at 20%.
For `CC(C)Cc1ccc(C(C)C(=O)O)cc1` (stereo unspecified) [IBUPROFEN], the Activity with RAW264.7 [1] is recorded as 90%.
In the case of `CN(Cc1cnc2nc(N)nc(N)c2n1)c1ccc(C(=O)N[C@@H](CCC(=O)O)C(=O)O)cc1` [METHOTREXATE], the Activity in the test on RAW264.7 [2] amounted to 78.5%.
On to `COc1ccc2cc([C@H](C)C(=O)O)ccc2c1` [NAPROXEN], for which, in the test with RAW264.7 [2], the Activity worked out at 65%.
Regarding `CC(=O)O[C@H]1C(=O)[C@@]2(C)[C@H]([C@H](OC(=O)c3ccccc3)[C@]3(O)C[C@H](OC(=O)[C@H](O)[C@@H](NC(=O)c4ccccc4)c4ccccc4)C(C)=C1C3(C)C)[C@]1(OC(C)=O)CO[C@@H]1C[C@@H]2O` [PACLITAXEL], the results for the half-inhibitory concentration (IC50) with KB and in the test on HeLa were 0.18 µg/mL (≈ 0.211 µM) and 0.9 µg/mL (≈ 1.05 µM), respectively.
